Laboratory results from ChEMBL document CHEMBL2074131, “Inhibition of P-glycoprotein function by XR9576 in a solid tumour model can restore anticancer drug efficacy” (Eur J Cancer, 2004).

Molecular target: ATP-dependent translocase ABCB1 (Homo sapiens, UniProt P08183)
Assay: TP_TRANSPORTER: drug resistance (vinblastine) in NCI/ADRRes cells
Assay type: functional, cell-based

Chain of ATP-dependent translocase ABCB1 (P08183 whole entry): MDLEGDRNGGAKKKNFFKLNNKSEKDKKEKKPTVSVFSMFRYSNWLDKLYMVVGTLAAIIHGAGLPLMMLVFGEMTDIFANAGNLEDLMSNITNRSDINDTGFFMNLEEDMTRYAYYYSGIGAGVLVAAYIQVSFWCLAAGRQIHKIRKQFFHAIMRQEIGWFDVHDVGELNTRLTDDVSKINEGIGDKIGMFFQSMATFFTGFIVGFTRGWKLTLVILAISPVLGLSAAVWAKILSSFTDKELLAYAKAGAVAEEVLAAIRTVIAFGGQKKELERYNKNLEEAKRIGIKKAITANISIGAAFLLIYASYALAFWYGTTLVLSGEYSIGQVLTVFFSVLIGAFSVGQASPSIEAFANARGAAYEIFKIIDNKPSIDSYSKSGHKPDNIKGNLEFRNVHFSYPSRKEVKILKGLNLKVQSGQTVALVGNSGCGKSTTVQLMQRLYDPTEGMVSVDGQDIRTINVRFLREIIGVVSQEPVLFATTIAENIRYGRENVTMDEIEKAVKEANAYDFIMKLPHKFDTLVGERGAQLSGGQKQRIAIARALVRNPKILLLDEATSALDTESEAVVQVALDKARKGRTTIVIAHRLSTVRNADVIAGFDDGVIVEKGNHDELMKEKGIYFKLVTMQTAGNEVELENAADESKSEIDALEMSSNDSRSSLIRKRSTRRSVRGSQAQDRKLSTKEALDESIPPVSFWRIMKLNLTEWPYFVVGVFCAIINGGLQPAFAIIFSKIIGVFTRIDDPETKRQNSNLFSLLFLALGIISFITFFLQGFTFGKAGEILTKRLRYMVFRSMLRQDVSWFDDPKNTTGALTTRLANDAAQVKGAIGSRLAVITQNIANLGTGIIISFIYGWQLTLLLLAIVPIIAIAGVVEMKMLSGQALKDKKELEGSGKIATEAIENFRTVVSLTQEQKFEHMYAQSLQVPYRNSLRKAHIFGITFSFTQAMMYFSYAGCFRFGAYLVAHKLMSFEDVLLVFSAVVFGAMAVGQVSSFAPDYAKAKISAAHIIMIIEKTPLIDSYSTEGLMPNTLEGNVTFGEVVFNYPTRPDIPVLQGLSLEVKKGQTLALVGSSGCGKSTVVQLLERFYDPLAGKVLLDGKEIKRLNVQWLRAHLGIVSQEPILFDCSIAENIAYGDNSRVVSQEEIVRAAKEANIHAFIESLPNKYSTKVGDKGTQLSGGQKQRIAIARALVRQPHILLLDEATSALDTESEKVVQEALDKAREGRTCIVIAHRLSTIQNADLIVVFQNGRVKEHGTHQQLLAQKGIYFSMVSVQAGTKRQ

Structure (SMILES): COc1cc2c(cc1OC)CN(CCc1ccc(NC(=O)c3cc(OC)c(OC)cc3NC(=O)c3cnc4ccccc4c3)cc1)CC2 [TARIQUIDAR]
- Activity: inhibitor [+]
